Data on 11 compounds can be found in PMC7076710, “Synthesis, Identification, and Structure–Activity Relationship Analysis of GATA4 and NKX2-5 Protein–Protein Interaction Modulators” (Journal of Medicinal Chemistry, 2019).

Read-outs that look alike come from different tables or passages of the source.

Holding throughout (type): cell-based
Series [1] relates to COS-1 cells. Briefly: MTT assay (cell viability). The conditions noted are these: cell viability. The source says:
(§1) To investigate the toxicity as a potential cause of decreased or increased activity in luciferase reporter gene assays, we tested a set of 40 active compounds in the COS-1 cell line used for the luciferase assays. Concentration-dependent toxic effects were investigated using the lactate dehydrogenase (LDH) assay to detect necrosis and the 3-(4,5-dimethylthiazol-2-yl)-2,5-diphenyltetrazolium bromide (MTT) assay as a measure of cell viability. […] For the data analysis, compounds were classified as toxic (Figures 5 and 7) if they induced a >10% decrease in cell viability in the MTT assay at the concentration of 10 μM. The most toxic compounds (35a, 35d, 54, 58, and 63–65) in the MTT assay all contained a phenyl substituent in the southern part ring, while the ortho-nitrophenyl-derivative 39g and the phenyl-substituted thiophene 47t were nontoxic. Higher flexibility in the central parts of the ethers (35a, 35d) and N-acylated amines (58, 64) might contribute to their toxicity, because less rigid compounds are more likely to have affinity to various biological targets. Such interactions can cause toxicity. To confirm and validate the results from MTT assays, we tested three nontoxic (2, 47s, and 72) and three toxic (1, 35a, and 58) compounds in a cell viability assay measuring intracellular ATP content.
(§2) Figure 5 Effects of selected compounds on COS-1 cell viability. (A) Compound-induced necrosis was quantified with the LDH assay after a 24-h compound exposure. The data are presented as cytotoxicity percentage (% of maximal LDH release). (B) Cell viability was analyzed with the MTT assay after a 24-h compound exposure. (A,B) The data are means from 2–3 independent experiments with 3 replicate wells in each and are presented as % of control (vehicle-treated cells). The compounds have been grouped on the basis of the structure of the central part: a, amide; b, ether; c, N-acylated amine; d, amine; and e, imine. (C) The effects of selected compounds on cell viability as determined by ATP content after a 24-h compound exposure. The data are mean + SEM from three independent experiments and are presented as % of vehicle-treated cells.
(§3) For toxicity screening, COS-1 cells were cultured in DMEM (Sigma-Aldrich, Steinheim, Germany) supplemented with 10% fetal bovine serum, 100 U/mL penicillin, and 100 μg/mL streptomycin (all from Gibco, Thermo Scientific) at 37 °C with 5% CO2. The cells were plated on 96-well plates at 10 000 cells/well and exposed to test compounds at a concentration range of 1–30 μM on the following day. After a 24-h compound treatment, lactate dehydrogenase (LDH) and 3-(4,5-dimethylthiazol-2-yl)-2,5-diphenyltetrazolium bromide (MTT) assays were carried out as described previously.[48] Briefly, LDH activity was determined from 50 μL samples of cell culture medium, to which 50 μL of substrate solution [1.3 mM β-nicotinamide-adenine dinucleotide, 660 μM iodonitrotetrazolium, 54 mM L(+)-lactic acid, and 280 μM phenazine methosulfate in 0.2 M Tris-HCl, pH 8.2, all from Sigma-Aldrich] was added, and the plate was incubated for 30 min at room temperature. The reaction was stopped with acetic acid (final concentration 333 mM), and absorbance was measured at 490 nm. The absorbance values of the samples were normalized to maximal LDH release and spontaneous LDH release determined on the same plate. Mitochondrial metabolic activity was quantified by incubating the cells with 0.5 mg/mL MTT (from Sigma-Aldrich) for 2 h at 37 °C with 5% CO2, whereafter culture medium was removed and formazan crystals were dissolved in DMSO. The absorbance was measured at 550 nm, and absorbance at 650 nm was subtracted as background.
A general note: Tetrazolium dyes change colour on reduction, which living cells bring about.

Series [2] concerns the target T1, GATA4 transcriptional activity (Mus musculus, UniProt Q08369).
T1 construct: expressed in transfected cells; host or cells: COS-1
As to the kind of experiment: GATA4 luciferase reporter assay (tandem GATA-site reporter, COS-1 cells). The protocol: (§4) To screen compounds for the GATA4–NKX2-5 interaction, we have developed a luciferase reporter assay based on their property to activate gene transcription synergistically through the NKX2-5 binding site on DNA.[28] In this assay, we transfected mammalian COS-1 cells with protein expression vectors for GATA4 and NKX2-5 proteins together with artificial luciferase reporter vector containing three high affinity binding sites for NKX2-5 (NKE). […] All 257 compounds were tested in two concentrations, 3 and 10 μM. Compounds either inhibited, enhanced, or had no effect on the GATA4–NKX2-5 transcriptional synergy. To investigate the selectivity of the active compounds, we tested their effects on NKX2-5 transcriptional activity by using the same luciferase reporter vector as in transcriptional synergy assay with three NKE sites (Figure 3B). Furthermore, we used GATA luciferase reporter assay to examine if compounds have an effect on GATA4 transcriptional activity. In this assay, we cotransfected the cells with a GATA4 protein expression vector and a reporter vector with tandem GATA4 binding sites (Figure 3C). Previously we have reported that compound 1 inhibited the GATA4–NKX2-5 transcriptional synergy at micromolar concentrations (IC50 = 3 μM).[29]
(§5) The plasmids expressing mouse GATA4 protein, pMT2-GATA4, and empty pMT2 were gifts from D. B. Wilson (Department of Pediatrics, St. Louis Children’s Hospital, St. Louis, MO).[44] The plasmids expressing mouse NKX2-5 protein, pMT2-NKX2-5, have been described earlier.[28] The luciferase reporter plasmid used in GATA4–NKX2-5 transcriptional synergy assay and NKX transcriptional assay, pGL3-3xHA, contains three high affinity binding sites for NKX2-5.[28] The luciferase reporter plasmid used in GATA transcriptional assay, NP-112, contains tandem GATA-sites and minimal promoter of rat brain natriuretic peptide (BNP) gene.[45] The pGL3-BNP luciferase reporter containing −534/+4 bp rat BNP proximal promoter described previously was used in hypertrophy assay.[46]
(§6) The primary screening assay of compounds’ effect on GATA4–NKX2-5 transcriptional synergy and COS-1 cell culturing has been described earlier.[33] […] (Kinnunen et al., unpublished observation). Briefly, COS-1 cells were seeded at 14 000 cells/well in Isoplate-96 microplates (PerkinElmer, Turku, Finland) and grown overnight. The cells were transfected with the luciferase reporter plasmid pGL3-3xHA 100 ng/well and equal amounts of expression plasmids pMT2-GATA4 and pMT2-NKX2-5 total 50 ng/well. To verify the synergistic effect, the cells were transfected with pMT2-GATA4 or pMT2-NKX2-5 25 ng/well, and the total DNA concentration was adjusted to 50 ng/well with empty pMT2 plasmid. In NKX2-5 and GATA4 luciferase reporter assays, the cells were transfected with reporter plasmid pGL3-3xHA or NP-112 (100 ng/well) and expression plasmid pMT2-NKX2-5 or pMT2-GATA4 (25 ng/well). The ratio of DNA/transfection reagent (Fugene 6, Promega) was 1:3 in all assays. The transfections were performed in serum and antibiotics free media for 6 h. The cells were treated with compounds or vehicle (0.1% DMSO) for 24 h, and the luminescence was measured using neolite Reporter Gene Assay System (PerkinElmer, Turku, Finland) and Victor2 plate reader (PerkinElmer, Turku, Finland).
(§7) Raw luciferase data were analyzed in Excel, and clear outliers were removed from triplicates by using the Grubb’s test. Data analysis was performed using R.[49] The luciferase data were first normalized on the basis of the combined mean value of controls. For data visualization and creation of figures, the following R packages were used: ggplot2, cowplot, RColorBrewer, and pheatmap. The heatmaps of the toxicity data were produced with GraphPad Prism 7.00 (GraphPad Software, La Jolla, CA). Statistical significance of luciferase reporter assay data was evaluated by randomized block analysis of variance followed by Dunnett’s post hoc test. […]
For orientation: A reporter such as luciferase makes a cellular process visible.

The subject of series [3] is COS-1 cells. As to the kind of experiment: LDH assay (necrosis).
From the text: as §1, §2, §3

In series [4] the target is T2, NKX2-5 transcriptional activity (Mus musculus, UniProt P42582).
T2 construct: expressed in transfected cells; host or cells: COS-1
Briefly: NKX2-5 luciferase reporter assay (3xNKE reporter, COS-1 cells). The conditions noted are these: for activity at 3 µM: read-out: NKX.3µM; for activity at 10 µM: read-out: NKX.10µM. As to the method: as §4, §5, §6, §7

Series [5] deals with T3, GATA4–NKX2-5 transcriptional synergy (Mus musculus, UniProt P42582+Q08369).
T3 construct: expressed in transfected cells; host or cells: COS-1
Briefly: GATA4–NKX2-5 transcriptional synergy luciferase reporter assay (3xNKE reporter, COS-1 cells).

[6] abbreviates: COS-1, 3 µM, luciferase reporter activity relative to control.
Where [7] appears, read: COS-1, 3 µM, luciferase reporter activity, % of control.
Setting [8] is: COS-1, 10 µM, luciferase reporter activity, % of control.
Where [9] appears, read: COS-1, compound 10 µM, luciferase reporter activity, spread in separate STDEV column.
The mark [10] stands for this setting: COS-1, compound 3 µM, luciferase reporter activity, spread in separate STDEV column.

T1 sequence (Q08369 whole entry): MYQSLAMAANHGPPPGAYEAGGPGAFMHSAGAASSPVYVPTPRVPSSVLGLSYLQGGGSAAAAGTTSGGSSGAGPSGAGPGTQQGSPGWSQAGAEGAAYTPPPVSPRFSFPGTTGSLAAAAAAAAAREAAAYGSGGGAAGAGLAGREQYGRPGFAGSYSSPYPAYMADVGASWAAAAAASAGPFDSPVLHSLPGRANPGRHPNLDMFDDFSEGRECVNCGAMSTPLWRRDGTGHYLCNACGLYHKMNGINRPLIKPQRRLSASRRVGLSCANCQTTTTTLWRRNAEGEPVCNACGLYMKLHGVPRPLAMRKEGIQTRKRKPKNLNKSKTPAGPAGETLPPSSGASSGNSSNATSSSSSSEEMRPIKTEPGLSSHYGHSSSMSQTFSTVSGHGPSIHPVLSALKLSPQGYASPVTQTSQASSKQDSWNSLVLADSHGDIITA
T3 sequence (Q08369 whole entry): as above
T3 sequence (P42582 whole entry): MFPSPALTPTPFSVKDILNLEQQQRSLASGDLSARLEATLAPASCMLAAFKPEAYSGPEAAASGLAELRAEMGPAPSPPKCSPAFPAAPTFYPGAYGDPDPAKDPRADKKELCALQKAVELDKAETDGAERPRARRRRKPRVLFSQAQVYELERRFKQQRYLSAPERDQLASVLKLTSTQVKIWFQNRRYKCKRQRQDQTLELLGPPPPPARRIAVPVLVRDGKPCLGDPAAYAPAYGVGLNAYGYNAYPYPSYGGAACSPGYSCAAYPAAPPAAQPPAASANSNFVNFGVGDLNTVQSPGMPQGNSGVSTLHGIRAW
T2 sequence (P42582 whole entry): as above

Take `CCN(CC)c1ccc(NC(=O)c2snnc2-c2ccccc2)cc1` [Compound 47n]: the MTT.1µM in series [1] (1 µM) came to 104.04. In series [1] (3 µM), the MTT.3µM was 91.5. In series [1] (10 µM), this compound returned an MTT.10µM of 90.69. Besides, the MTT.30µM in series [1] (30 µM) worked out at 79.72. For the same compound, the activity at 3 µM in series [2] (setting [6]) stood at 92.4%; in series [4] (setting [6]) it was 71.1%. The compound also had an LDH.1µM in series [3] (1 µM) of 1.44. The same compound had an LDH.3µM in series [3] (3 µM) of 1.32. For the same compound, in series [3] (10 µM), the LDH.10µM came to 0.75. The compound also registered an LDH.30µM in series [3] (30 µM) of 1.71.

As for `Cc1onc(-c2ccccc2)c1C(=O)Nc1ccc(-c2ccccc2)cc1` [Compound 4f], the values for the activity at 3 µM in series [5] (setting [7]), in series [2] (setting [7]) and in series [4] (setting [7]) were 72.7%, 102% and 91%, respectively. In addition, the activity at 10 µM in series [5] (setting [8]) came to 112%; in series [2] (setting [8]), 114%.

On to `C#CC[N+](CC)(CC)c1ccc(NC(=O)c2c(-c3ccccc3)noc2C)cc1` [Compound 77], for which the activity at 3 µM in series [5] (setting [7]) was found to be 84%; in series [2] (setting [7]) it was 101%; in series [4] (setting [7]), 97.9%. The activity at 10 µM is 101% in series [5] (setting [8]), 95.3% in series [2] (setting [8]) and 117% in series [4] (setting [8]).

As for `CCc1noc(C)c1C(=O)Nc1ccc(N(CC)CC)cc1` [Compound 39b], the activity at 3 µM in series [5] (3 µM compound, GATA4–NKX2-5 transcriptional synergy reporter, COS-1 cells) is 97.5%; in series [2] (3 µM compound, GATA4 luciferase reporter, COS-1 cells), 120%; in series [4] (3 µM compound, NKX2-5 luciferase reporter, COS-1 cells), 124%. In addition, the activity at 10 µM in series [5] (10 µM compound, GATA4–NKX2-5 transcriptional synergy reporter, COS-1 cells) is 104%; in series [2] (10 µM compound, GATA4 luciferase reporter, COS-1 cells) it was 143%; in series [4] (10 µM compound, NKX2-5 luciferase reporter, COS-1 cells), 164%.

On to `CCN(CC)c1ccc(NC(=O)c2c(-c3ccc(C)s3)noc2C)cc1` [Compound 39p], for which the activity at 10 µM in series [5] (setting [9]) stood at 102%. Further, the activity at 3 µM came to 85.9% in series [2] (setting [10]) and 83.8% in series [4] (setting [10]).

Consider `CC(C)c1ccc(NC(=O)c2noc3c2CCc2sccc2-3)cc1` [Compound 66], for which the activity at 3 µM in series [5] (COS-1, GATA4-NKX2-5 transcriptional synergy luciferase reporter assay, compound at 3 µM) came to 132%; in series [4] (COS-1, NKX2-5 luciferase reporter assay, compound at 3 µM) it was 122%. The activity at 10 µM in series [5] (COS-1, GATA4-NKX2-5 transcriptional synergy luciferase reporter assay, compound at 10 µM) came to 128%; in series [2] (COS-1, GATA4 luciferase reporter assay, compound at 10 µM), 124%; in series [4] (COS-1, NKX2-5 luciferase reporter assay, compound at 10 µM), 106%.

`CCN(CC)c1ccc(NC(=O)c2c(C)nc3ccccn23)cc1` [Compound 47ab]: the figures for the activity at 3 µM in series [5] (setting [7]), in series [2] (setting [7]) and in series [4] (setting [7]) were 83.4%, 127% and 106%, respectively.

Regarding `CN(C)c1ccc(/N=C/c2c[nH]nc2-c2ccc(F)cc2)cc1` [Compound 75], the activity at 3 µM amounted to 110% in series [5] (setting [7]), 107% in series [2] (setting [7]) and 108% in series [4] (setting [7]). The activity at 10 µM came out at 100% in series [5] (setting [8]), 122% in series [2] (setting [8]) and 145% in series [4] (setting [8]).

As for `CCN(CC)c1ccc(NC(=O)c2cc(C)oc2-c2cc(C)on2)cc1` [Compound 47h], the activity at 3 µM in series [5] (setting [10]) was found to be 118%; in series [2] (setting [10]), 134%; in series [4] (setting [10]), 114%. The activity at 10 µM in series [5] (setting [9]) was found to be 104%; in series [2] (setting [9]) it was 143%; in series [4] (setting [9]) it was 106%.

On to `Cc1onc(-c2ccccc2)c1C(=O)Nc1ccc(C(=O)OCCCCC#N)cc1` [Compound 10c], for which the activity at 3 µM came out at 101% in series [5] (setting [10]), 109% in series [2] (setting [10]) and 102% in series [4] (setting [10]). For the same compound, the activity at 10 µM in series [2] (setting [9]) turned out to be 102%; in series [4] (setting [9]), 147%.

As for `Cc1onc(-c2ccccc2)c1COCc1ccc2ccccc2c1` [SI48], the figures for the activity at 3 µM in series [5] (setting [7]), in series [2] (setting [7]) and in series [4] (setting [7]) were 104%, 96.5% and 103%, respectively. Further, the activity at 10 µM came out at 90.6% in series [5] (setting [8]), 110% in series [2] (setting [8]) and 95.1% in series [4] (setting [8]).
